Experiments:
iNOS = biological target: T1, iNOS (Rattus norvegicus, UniProt Q06518); assay: LPS challenge (LPS induced iNOS in vivo); settings: for ED50: ED50 class
T1 construct: from tissue; host or cells: whole animal: male Lewis rats after LPS injection; blood samples collected
Text: Inhibition of induction of iNOS can be quantified via the LPS challenge. Inflammation, edema, and the onset of sepsis can be observed following an injection of lipopolysaccharide (LPS), a substance produced by Gram-negative bacteria. […] (Iuvone T et al., Evidence that inducible nitric oxide synthase is involved in LPS-mediated plasma leakage in rat skin through the activation of nuclear factor-κB, Br J Pharm 1998:123 1325-1330.) As described above, the level of nitric oxide in the specimen can be quantified by correlation with plasma nitrate or nitrite levels via chemiluminescence, fluorescence, spectrophotometric assays, or by any method known in the art which provides adequate sensitivity and reproducibility, including those described above.
Male Lewis rats weighing 150-250 g are used in the studies. Rats may be fasted for up to 16 hours prior to the administration of LPS. Free access to water is maintained. Test compounds are administered with LPS or alone. Compounds are dissolved in the vehicle of 0.5% methycele/0.025% Tween 20 or 20% encapsin for oral administration. For the intravenous dosing, compounds are dissolved in saline or 0.5-3% DMSO/20% encapsin. The dosing volumes are 1-2 ml for oral and 0.3-1 ml for intravenous administration.
LPS is injected intravenously (under anesthesia) or intraperitoneally in sterile saline at a dose between 0.1-10 mg/kg in a volume not excess to 1 ml. The needle is 26-30 gauge. […] In routine screening experiments, rats are sacrificed 1.5-6 hr after LPS injection and a terminal bleeding is performed under anesthesia to collect 1-3 ml blood samples and then animals are then euthanized by CO2.

rat = assay: Capsaicin test (topical capsaicin allodynia); format: in vivo
Text: Subcutaneous injection of dilute capsaicin into the rat hind paw produces transient but pronounced hyperalgesia, allodynia and pain. This effect may be mitigated by pretreatment with a suitable agent, such as a topical anaesthetic or analgesic, and the extent of this mitigation quantified by evaluation of pain-related behaviors in response to noxious or innocuous stimuli as described above; rats pretreated with a known analgesic display fewer pain and allodynia related behaviors than controls. Compounds may be evaluated for their efficacy as potential analgesics in this manner as well.
Male Lewis rats weighing between 180 and 250 grams are used. The right hind paw is dipped into vehicle (100% acetone) or compound in vehicle for 30 seconds and then allowed to air-dry for 30 sec. To prevent the animal from licking the compound off the paw, the paw is wiped twice with a wet paper towel. At 15 min after application of vehicle or compound, 0.1 mg in 10 μL capsaicin is injected into right hind paw. Measurement of allodynia is performed 0.5 to 1 hour after capsaicin injection.
One procedure for quantifying allodynia measures the rat behavioral response to presentation of von Frey filaments of increasing diameter. Each rat is placed in a small, clear cage on an elevated screen. Beginning with 4.31, the von Frey hair is presented perpendicularly to the right mid-plantar hind paw with sufficient force to cause slight buckling, for 6-8 seconds. If presentation lifts the hind paw it is disregarded, as it changes the nature of the stimulus. A positive response is noted if the paw is sharply withdrawn upon onset or offset of stimulus. Ambulation is considered an ambiguous response and the presentation is repeated. Stimuli are presented in a consecutive fashion. A positive response would call for the presentation of the immediately weaker weight filament next; likewise, no response would call for the immediately stronger. Presentations continue until a series of six consecutive responses from the first change is logged. The next rat is then tested. This procedure is standard in the art for the measurement of allodynia, but any other method known in the art which provides adequate sensitivity and reproducibility may be substituted.

[1] = at 0.5 hr after capsaicin injection
[2] = at 1 hr after capsaicin injection

SMILES | inhibition at 16 mg/kg (iNOS; at 16 mg/kg) [%] | Topical Capsaicin Allodynia (rat; [1]) | Topical Capsaicin Allodynia (rat; [2]) | ED50 (iNOS) [mg/kg]
Cc1cc(C2CCCN2C(=O)CNCc2ccc3c(c2)OCO3)nc(-n2ccnc2)n1 (stereo not drawn) [Example 5] | 64 | + at 0.5 hr ((+) = >15% inhibition) | − at 1 hr ((−) = <15% inhibition) | –
CN(CCCNCc1ccc2c(c1)OCO2)c1nc(-n2ccnc2)ns1 [Example 2, N′-Benzo[1,3]dioxol-5-ylmethyl-N-(3-imidazol-1-yl-[1,2,4]thiadiazol-5-yl)-N-methyl-propane-1,3-diamine] | – | + at 0.5 hr ((+) = >15% inhibition) | + at 1 hr ((+) = >15% inhibition) | < 10
Cc1cc(C2CCCN2C(=O)NCCc2ccc3c(c2)OCO3)nc(-n2ccnc2)n1 (stereo not drawn) [Example 4, 2-(2-Imidazol-1-yl-6-methyl-pyrimidin-4-yl)-pyrrolidine-1-carboxylic acid (2-benzo[1,3]dioxol-5-yl-ethyl)-amide] | – | − at 0.5 hr ((−) = <15% inhibition) | + at 1 hr ((+) = >15% inhibition) | < 10

Reference: patent US7825256B2, “Inducible nitric oxide synthase dimerization inhibitors” (Kalypsys, Inc., priority 2004, dated 2010)
